2 compounds from paper PMC3223730, “A nuclear magnetic resonance based approach to accurate functional annotation of putative enzymes in the methanogen Methanosarcina acetivorans” (BMC Genomics, 2011) can be followed below.

The target of one assay is T1, MA3706 (Methanosarcina acetivorans, UniProt Q8TJS1).
T1 construct: gene MA_3706; removal not described), expressed in E. coli BL21(DE3) Rosetta, Ni-NTA purified
The assay is described as follows: isothermal titration calorimetry. Format: binding. The note with it: read-out: dissociation constant.

In the next assay the target is T2, MA4265 (Methanosarcina acetivorans, UniProt Q8TI91).
T2 construct: gene MA_4265; removal not described), expressed in E. coli at 25°C, Ni-NTA purified
T2 sequence (Q8TI91 1-342): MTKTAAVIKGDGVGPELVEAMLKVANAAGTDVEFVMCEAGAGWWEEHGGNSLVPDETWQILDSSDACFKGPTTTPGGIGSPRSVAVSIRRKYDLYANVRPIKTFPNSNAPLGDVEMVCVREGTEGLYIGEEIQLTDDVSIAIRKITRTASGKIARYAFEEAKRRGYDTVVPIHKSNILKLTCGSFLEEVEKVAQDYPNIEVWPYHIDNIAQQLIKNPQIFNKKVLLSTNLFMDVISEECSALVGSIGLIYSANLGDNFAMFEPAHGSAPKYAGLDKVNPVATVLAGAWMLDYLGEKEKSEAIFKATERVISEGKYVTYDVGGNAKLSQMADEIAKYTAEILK
The assay is described as follows: waterLOGSY 1H NMR. Format: binding. The note with it: 300 μM ligand, 30 μM protein; 50 mM sodium phosphate, 100 mM NaCl, pH 7.0; 5 or 25 °C.

T1 sequence (Q8TJS1 whole entry): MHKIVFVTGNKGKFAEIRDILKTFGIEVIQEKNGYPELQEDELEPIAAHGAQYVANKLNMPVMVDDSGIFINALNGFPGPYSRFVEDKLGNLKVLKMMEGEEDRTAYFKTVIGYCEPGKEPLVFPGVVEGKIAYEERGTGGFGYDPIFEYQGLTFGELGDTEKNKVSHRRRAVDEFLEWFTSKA

On to `O=P(O)(O)OP(=O)(O)OP(=O)(O)OC[C@H]1O[C@@H](n2cnc3c(O)ncnc32)[C@H](O)[C@@H]1O` [ITP], for which the Kd at MA3706 worked out at 7.8 µM. Consider `O=C(O)C[C@H](C(=O)O)[C@@H](O)C(=O)O` [isocitrate], for which the “waterLOGSY 1H NMR” value at MA4265 is “Only isocitrate binds to MA4265 under the conditions used”.
